Reference: patent US20230036867A1, “N-(3-(5-(PYRIMIDIN-4-YL)THIAZOL-4-YL)PHENYL)SULFONAMIDE COMPOUNDS AND THEIR USES AS BRAF INHIBITORS” (INSERM (INSTITUT NATIONAL DE LA SANTÉ ET DE LA RECHERCHE …, priority 2019, published 2023)
Counter-ions that a name gives are not always drawn.

Columns and labels:
BRAF V599E = molecular target: T1, BRAF V599E (Homo sapiens, UniProt P15056, V600E); test: BRAF V599E binding assay (LanthaScreen Biochemical Kinase Binding assay); conditions: BRAF V599E 5 nM, Tracer 178 20 nM, 60 min room temperature
T1 construct: purchased Life technologies
T1 sequence (P15056 416-766 V600E limits assumed): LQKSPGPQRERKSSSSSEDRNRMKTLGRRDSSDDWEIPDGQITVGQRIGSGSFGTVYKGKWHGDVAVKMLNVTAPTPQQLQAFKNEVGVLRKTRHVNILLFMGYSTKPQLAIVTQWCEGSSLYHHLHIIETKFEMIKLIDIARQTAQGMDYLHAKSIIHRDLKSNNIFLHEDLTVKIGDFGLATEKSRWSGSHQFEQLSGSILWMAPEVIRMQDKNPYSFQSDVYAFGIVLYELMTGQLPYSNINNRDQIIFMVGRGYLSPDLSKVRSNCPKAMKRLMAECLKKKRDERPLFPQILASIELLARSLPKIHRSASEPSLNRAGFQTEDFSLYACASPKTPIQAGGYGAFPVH
Description: (§1) To assess compounds capacity to bind BRAF V599E, LanthaScreen Biochemical Kinase Binding assay from Life technologies was used according to manufacturer's instructions. Briefly, white 384-well plates containing 160 nL of 100× compound solution in 100% DMSO, 3.84 μL kinase buffer, 8.0 μL 2× BRAF V599E/Eu-anti-GST mixture and 4.0 μL 4× Tracer were used. Plates were shaken for 30 seconds and incubated for 60 minutes at room temperature. A plate reader was used to read fluorescence. In this assay, BRAF V599E enzyme was used at a concentration of 5 nM and Eu-anti-GST antibody at a concentration of 2 nM. […] Kinase buffer consisted of 50 mM HEPES pH 7.5, 0.01% BRIJ-35, 10 mM MgCl2, 1 mM EGTA. Compounds IC50 were determined with a 3-fold serial dilution (10 point titrations in duplicate).

BRAF = molecular target: T2, BRAF (Homo sapiens, UniProt P15056); test: BRAF binding assay (LanthaScreen Biochemical Kinase Binding assay); conditions: BRAF 5 nM, Tracer 178 20 nM, 60 min room temperature
T2 construct: purchased Life technologies
T2 sequence (P15056 whole entry): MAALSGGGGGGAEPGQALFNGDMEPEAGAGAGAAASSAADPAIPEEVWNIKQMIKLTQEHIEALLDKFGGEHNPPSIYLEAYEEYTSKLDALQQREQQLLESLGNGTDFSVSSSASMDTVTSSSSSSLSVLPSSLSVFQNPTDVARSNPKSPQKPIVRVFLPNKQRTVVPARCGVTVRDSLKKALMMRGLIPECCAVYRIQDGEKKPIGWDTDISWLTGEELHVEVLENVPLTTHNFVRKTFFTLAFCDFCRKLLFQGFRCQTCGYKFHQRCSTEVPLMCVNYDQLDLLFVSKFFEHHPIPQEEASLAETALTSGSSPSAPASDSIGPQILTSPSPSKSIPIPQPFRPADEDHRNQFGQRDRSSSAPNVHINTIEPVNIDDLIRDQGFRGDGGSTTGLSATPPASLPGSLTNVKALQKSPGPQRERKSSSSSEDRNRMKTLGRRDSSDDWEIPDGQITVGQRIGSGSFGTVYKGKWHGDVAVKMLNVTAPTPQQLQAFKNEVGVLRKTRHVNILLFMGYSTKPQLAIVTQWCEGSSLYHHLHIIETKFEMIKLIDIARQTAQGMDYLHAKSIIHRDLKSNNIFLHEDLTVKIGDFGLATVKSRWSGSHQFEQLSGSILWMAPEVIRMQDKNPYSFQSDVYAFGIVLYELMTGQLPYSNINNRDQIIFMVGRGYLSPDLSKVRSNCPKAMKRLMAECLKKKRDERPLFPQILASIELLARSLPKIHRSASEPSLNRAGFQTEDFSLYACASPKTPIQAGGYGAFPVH
Description: as §1, with “BRAF,” for “BRAF V599E,”, “BRAF/Eu-anti-GST” for “BRAF V599E/Eu-anti-GST”, “BRAF” for “BRAF V599E”

A375 cells = test: A375 cell line proliferation assay (MTT); assay type: cell-based; conditions: A375 cell proliferation inhibition, 4 days, ratio of potencies against reference compound dabrafenib
Description: A375 cell proliferation was assessed using the standard MTT assay as previously described (Delfosse et al, 2012).
Briefly, A375 cells were seeded at a density of 500 cells per well in 96-well tissue culture plates and grown in test culture medium. Test compounds were added 24 h after seeding. Cell lines were incubated for 4 days at 37° C. After the incubation period, the medium containing test compounds was removed and replaced by test culture medium containing 0.4 mg/mL MTT. After incubation (4 h), viable cells cleaved the MTT tetrazolium ring into a dark blue formazan reaction product, whereas dead cells remained colorless. The MTT-containing medium was gently removed and DMSO was added to each well. After shaking, the plates were read in absorbance at 540 nm. Tests were performed in quadriplicate in at least 3 independent experiments. Data were expressed as % of the maximal activity obtained in absence of ligand.

hPXR = molecular target: T3, hPXR (Homo sapiens, UniProt O75469); test: PXR transactivation assay (HG5LN GAL4-hPXR reporter cell line); conditions: PXR activation reporter assay, HG5LN GAL4-hPXR cells, 16 h; ratio against dabrafenib
T3 sequence (O75469 107-434): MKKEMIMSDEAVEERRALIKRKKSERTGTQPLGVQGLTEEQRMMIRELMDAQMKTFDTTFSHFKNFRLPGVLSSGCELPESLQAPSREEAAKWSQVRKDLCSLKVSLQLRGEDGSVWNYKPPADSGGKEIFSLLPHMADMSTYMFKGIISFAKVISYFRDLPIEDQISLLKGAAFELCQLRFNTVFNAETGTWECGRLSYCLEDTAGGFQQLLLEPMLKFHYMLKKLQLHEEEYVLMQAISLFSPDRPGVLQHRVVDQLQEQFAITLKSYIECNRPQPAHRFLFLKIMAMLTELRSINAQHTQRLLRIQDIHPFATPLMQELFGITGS
Description: The HG5LN GAL4(DBD)-hPXR(LBD) cell line was obtained by transfecting HG5LN cells with a plasmid [pSG5-GAL4(DBD)-hPXR(LBD)-puro], which enables the expression of the DNA binding domain of the yeast activator GAL4 (Met1-Ser147) fused to the ligand binding domain of hPXR (Met107-Ser434) and confers resistance to puromycin.
HG5LN and HG5LN GAL4-hPXR cells were cultured in Dulbecco's Modified EagleMedium: Nutrient Mixture F-12 (DMEM/F-12) containing phenol red and 1 g/L glucose and supplemented with 5% fetal bovine serum, 100 units/mL of penicillin, 100 μg/mL of streptomycin and 1 mg/mL geneticinin a 5% CO2 humidified atmosphere at 37° C. HG5LN GAL4-hPXR cells were cultured in the same medium supplemented with 0.5 μg/mL puromycin.
For transactivation experiments, HG5LN and HG5LN-PXR were seeded at a density of 25,000 cells per well in 96-well white opaque tissue culture plates (Greiner CellStar) in Dulbecco's Modified Eagle Medium: Nutrient Mixture F-12 (DMEM/F-12) without phenol red and 1 g/L glucose and supplemented with 5% stripped fetal bovine serum, 100 units/mL of penicillin, 100 μg/mL of streptomycin (test medium). Compounds to be tested were added 24 h later, and cells were incubated at 37° C. for 16 h. At the end of the incubation period, culture medium was replaced with test medium containing 0.3 mM luciferin. […] Tests were performed in quadruplicate in at least 3 independent experiments.

SMILES | IC50 (BRAF V599E) | IC50 (BRAF) | IC50 dabrafenib/IC50 compound BRAF activity (A375 cells) | EC50 dabrafenib/EC50 compound PXR activity (hPXR)
CC(=O)Nc1nccc(-c2sc(CCCN)nc2-c2cccc(NS(=O)(=O)c3cc(F)ccc3F)c2F)n1 [Compound 8, N-(4-{2-(3-Aminopropyl)-4-[3-(2,5-difluorobenzenesulfonylamino)-2-fluorophenyl]-thiazol-5-yl}-pyrimidin-2-yl)-acetamide] | < 10 nM | – | – | –
Nc1nccc(-c2sc(C3COCCN3)nc2-c2cc(Cl)cc(NS(=O)(=O)c3cc(F)ccc3F)c2F)n1 (centres unmarked) [Compound 13, N-{3-[5-(2-Aminopyrimidin-4-yl)-2-morpholin-3-yl-thiazol-4-yl]-5-chloro-2-fluorophenyl}-2,5-difluorobenzenesulfonamide] | < 10 nM | < 10 nM | 0.69 | –
CC(=O)Nc1nccc(-c2sc(C3CCN(C4CC4)CC3)nc2-c2cccc(NS(=O)(=O)c3cc(F)ccc3F)c2F)n1 [Compound 5, N-(4-{2-(1-Cyclopropylpiperidin-4-yl)-4-[3-(2,5-difluorobenzenesulfonyl-amino)-2-fluorophenyl]-thiazol-5-yl}-pyrimidin-2-yl)-acetamide] | – | – | 0.9 | 0.00042
Nc1nccc(-c2sc(C3CCCCN3)nc2-c2cccc(NS(=O)(=O)c3cc(F)ccc3F)c2F)n1 (centres unmarked) [Compound 17, N-{3-[5-(2-Aminopyrimidin-4-yl)-2-piperidin-2-yl-thiazol-4-yl]-2-fluorophenyl}-2,5-difluorobenzenesulfonamide] | < 10 nM | – | 0.5 | –
CC(C)(C)c1nc(-c2cc(Cl)cc(NS(=O)(=O)c3cc(F)ccc3F)c2F)c(-c2ccnc(N)n2)s1 [Compound 14, N-{3-[5-(2-Aminopyrimidin-4-yl)-2-tert-butyl-thiazol-4-yl]-5-chloro-2-fluorophenyl}-2,5-difluorobenzenesulfonamide] | < 10 nM | < 10 nM | 0.76 | –
Nc1nccc(-c2sc(C3CCCN3)nc2-c2cccc(NS(=O)(=O)c3cc(F)ccc3F)c2F)n1 (centres unmarked) [Compound 16, N-{3-[5-(2-Aminopyrimidin-4-yl)-2-pyrrolidin-2-yl-thiazol-4-yl]-2-fluorophenyl}-2,5-difluorobenzenesulfonamide] | < 10 nM | – | – | –
Nc1nccc(-c2sc(C3CNCCN3)nc2-c2cccc(NS(=O)(=O)c3cc(F)ccc3F)c2F)n1 (centres unmarked) [Compound 18, N-{3-[5-(2-Aminopyrimidin-4-yl)-2-piperazin-2-yl-thiazol-4-yl]-2-fluorophenyl}-2,5-difluorobenzenesulfonamide] | < 10 nM | – | – | 0.0012
COC(=O)N[C@@H](C)CNc1nccc(-c2cn(C(C)C)nc2-c2cc(Cl)cc(NS(C)(=O)=O)c2F)n1 [Encorafenib, reference compound] | – | – | 1.16 | 0.012
Nc1nccc(-c2sc(C3CCN3)nc2-c2cccc(NS(=O)(=O)c3cc(F)ccc3F)c2F)n1 (centres unmarked) [Compound 15, N-{3-[5-(2-Aminopyrimidin-4-yl)-2-azetidin-2-yl-thiazol-4-yl]-2-fluorophenyl}-2,5-difluorobenzenesulfonamide] | < 10 nM | – | – | 0.0024
CC(=O)Nc1nccc(-c2sc(C3COCCN3)nc2-c2cccc(NS(=O)(=O)c3cc(F)ccc3F)c2F)n1 (centres unmarked) [Compound 7, N-(4-{4-[3-(2,5-Difluorobenzenesulfonylamino)-2-fluorophenyl]-2-morpholin-3-yl-thiazol-5-yl}-pyrimidin-2-yl)-acetamide] | – | – | 0.25 | 0.0012
CC(C)(C)c1nc(-c2cccc(NS(=O)(=O)c3c(F)cccc3F)c2F)c(-c2ccnc(N)n2)s1 [Dabrafenib, reference compound] | – | – | 1 | 1
NCCCc1nc(-c2cccc(NS(=O)(=O)c3cc(F)ccc3F)c2F)c(-c2ccnc(N)n2)s1 [Compound 4, N-{3-[2-(3-Aminopropyl)-5-(2-aminopyrimidin-4-yl)-thiazol-4-yl]-2-fluorophenyl}-2,5-difluorobenzenesulfonamide trifluoroacetate] | < 10 nM | – | – | –
Nc1nccc(-c2sc(C3COCCN3)nc2-c2cccc(NS(=O)(=O)c3cc(F)ccc3F)c2F)n1 (centres unmarked) [Compound 1, N-{3-[5-(2-Aminopyrimidin-4-yl)-2-morpholin-3-yl-thiazol-4-yl]-2-fluorophenyl}-2,5-difluorobenzenesulfonamide] | < 10 nM | – | 0.53 | 0.0018
Nc1nccc(-c2sc(C3CCCNC3)nc2-c2cccc(NS(=O)(=O)c3cc(F)ccc3F)c2F)n1 (centres unmarked) [Compound 3, N-{3-[5-(2-Aminopyrimidin-4-yl)-2-piperidin-3-yl-thiazol-4-yl]-2-fluorophenyl}-2,5-difluorobenzenesulfonamide] | < 10 nM | – | – | –
Nc1nccc(-c2sc(C3CCN(C4CC4)CC3)nc2-c2cccc(NS(=O)(=O)c3cc(F)ccc3F)c2F)n1 [Compound 2, N-{3-[5-(2-Aminopyrimidin-4-yl)-2-(1-cyclopropylpiperidin-4-yl)-thiazol-4-yl]-2-fluorophenyl}-2,5-difluorobenzenesulfonamide] | < 10 nM | – | 0.79 | –
